# Data from ChEMBL document CHEMBL1201862, “PubChem BioAssay data set” (2004).
# Active and inactive are the calls of the source. Non-standard residues stand in square brackets, D forms with d. Residues, ends and D or L forms follow the SMILES beside them. ξ: configuration not given here. *: point of attachment. X18 = COC1=CC(=O)N(C(=O)C(O*)C(C)C)C1Cc1ccccc1; ξNMe2Val = CC(C)C(C(=O)*)N(C)C; NMeV = CN[CH](C(=O)O)C(C)C
# Key:
# Vero [1] = test: cells; assay type: functional; settings: Chlorocebus sabaeus
# BJ [2] = test: cells; assay type: functional, cell-based; settings: Homo sapiens
# BJ [3] = test: cytotoxicity toward BJ-TERT-LT-ST fibroblasts, dose response, cell-based, RAS-independent, luminescence (AID 1935); assay type: functional; settings: Homo sapiens;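 further: BJ fibroblasts immortalized with TERT plus LT and ST oncogenes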
# [4] = cytotoxicity toward DRD oncogenic fibroblasts, dose response, cell-based, non-viral oncogenic, luminescence (AID 1934); assay type: functional; settings: Homo sapiens
# BJ [5] = test: cytotoxicity toward BJ-TERT fibroblasts, dose response, cell-based, RAS-independent, luminescence (AID 1933); assay type: functional; settings: Homo sapiens
# [6] = HEp-2 cell cytotoxicity, dose response, cytotoxicity control for RSV inhibitor project, HTS (AID 2410); assay type: functional; settings: human respiratory syncytial virus
# cells [7] = test: cells
# Vero [8] = test: cells; assay type: functional, cell-based; settings: Chlorocebus sabaeus
# [9] = target: T1, Polyadenylate-binding protein 1 (Homo sapiens, UniProt P11940); test: PABP1 MLLE–PAM2 binding inhibitor potency, dose response, biochemical, fluorescence polarization, FITC-PAM2 peptide (AID 602259); assay type: functional; settings: read-out: IC50_Mean
# [10] = target: T1, Polyadenylate-binding protein 1; test: PABP1 MLLE–PAM2 interaction inhibitors, dose response, miRNA deadenylation inhibitor project, biochemical, fluorescence polarization, Cy5-PAM2 peptide, secondary (AID 602260); assay type: functional; settings: read-out: IC50_Mean
# Genome polyprotein = Genome polyprotein (dengue virus type 2, UniProt P29990); test: Dengue-2 NS5 methyltransferase inhibitors, primary screen, biochemical, confirmation dose response (AID 588689); assay type: functional
# [11] = target: Glucose-6-phosphate 1-dehydrogenase (Homo sapiens, UniProt P11413); test: human G6PD enzyme inhibitors, dose response, selectivity assay for P. falciparum G6PD inhibitor project, biochemical, fluorescence (AID 504792); assay type: functional
# [12] = CEM21 lymphoblast cell cytotoxicity, dose response, cytotoxicity control for viral fusion inhibitor project, CellTiter-Glo luminescence, cherry-picked (AID 652042); assay type: functional, cell-based;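 further: potency for signal decrease meaning cytotoxicity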
# [13] = ZM109 Env clade C HIV-1 fusion inhibitors, dose response, HeLa effector, CEM target cells, luciferase, cherry-pick (AID 652058); assay type: functional, cell-based
# [14] = inhibitors of HIV Env-driven cell fusion, dose response, cherry-pick (AID 652057); assay type: functional, cell-based
# [15] = off-target signal loss in HeLa-CEM21 co-culture – HeLa F-luc CTL cells, cherry-picked, counter-screen for HIV-1 Env fusion inhibitor project, dose response (AID 652040); assay type: functional, cell-based;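 further: potency for signal decrease marking cytotoxic or nonspecific inhibition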
# Escherichia coli = test: microbe, parasite or virus in culture
# P388 = test: cells; assay type: functional; settings: Mus musculus
# P388/ADR = test: cells; assay type: functional; settings: Mus musculus
# SN12K1 = test: cells; assay type: functional; settings: Homo sapiens
# [16] = Shn3 3'UTR reporter inhibitors, dose response, cell-based, Clone20 osteoblasts, firefly luciferase, cherry-picked (AID 624132); assay type: functional;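 further: firefly luciferase luminescence from reporter carrying the Shn3 3'UTR in osteoblasts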
# [17] = control 3'UTR Renilla luciferase suppression, dose response, counter-screen for Shn3 inhibitor project, cell-based, Clone20-Shn3RL, cherry-picked (AID 624133); assay type: functional
# [18] = HepG2 cell cytotoxicity, dose response, cytotoxicity control for Shn3 inhibitor project, CellTiter-Glo, cherry-picked (AID 624134); assay type: functional, cell-based
# [19] = HepG2 cell cytotoxicity, dose response, cytotoxicity control, plate reader, cherry-pick, antagonist series (AID 743416); assay type: functional, cell-based
# [20] = A549 cell cytotoxicity, dose response, cytotoxicity control, plate reader, cherry-pick, antagonist series (AID 743412); assay type: functional, cell-based
# [21] = LGR2 antagonists, dose response, cell-based, HEK293, CRE-luciferase reporter, cherry pick, set 2 (AID 743343); assay type: functional;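 further: transfected cells were stimulated with diluted bursicon conditioned medium after compound addition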
# [22] = HEK293 cell cytotoxicity, dose response, cytotoxicity control, plate reader, cherry-picked samples (AID 743446); assay type: functional, cell-based
# [23] = MC4R antagonists, dose response, counter-screen for LGR2 antagonist project, cell-based, plate reader, cherry pick (AID 743444); assay type: functional;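 further: transfected HEK 293 cells stimulated with alpha-MSH peptide; potency of inhibitors of the alpha-MSH evoked signal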
# [24] = intracellular Trypanosoma cruzi inhibitors in host cells – cell-based, plate reader, cherry-pick samples, set 3, dose response (AID 651818); assay type: functional;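 further: compounds incubated with infected cells for about four days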
# [25] = cytotoxicity in OVCAR8 ovarian cancer cells, dose response, PAX8 project, cell-based, plate reader, dry powder samples (AID 743197); assay type: functional; settings: OVCAR-8
# Paired box protein Pax-8 = Paired box protein Pax-8 (Homo sapiens, UniProt Q06710); test: inhibitors of PAX8-driven TPO luciferase reporter, dose response, RMG-I cells, cherry-pick (AID 687027); assay type: functional, cell-based;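 further: luciferase reporter driven by Pax8 target thyroperoxidase promoter measured by SteadyGlo luminescence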
# [26] = inhibitors of clade B AD8 Env fusion, dose response, cell-based, cherry-pick (AID 652062); assay type: functional;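 further: luciferase signal from cell-cell fusion driven by HIV-1 clade B AD8 Env; potency is for inhibitors of fusion seen as a drop in luminescence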
# cells [27] = assay type: functional
# T1 sequence (P11940 whole entry): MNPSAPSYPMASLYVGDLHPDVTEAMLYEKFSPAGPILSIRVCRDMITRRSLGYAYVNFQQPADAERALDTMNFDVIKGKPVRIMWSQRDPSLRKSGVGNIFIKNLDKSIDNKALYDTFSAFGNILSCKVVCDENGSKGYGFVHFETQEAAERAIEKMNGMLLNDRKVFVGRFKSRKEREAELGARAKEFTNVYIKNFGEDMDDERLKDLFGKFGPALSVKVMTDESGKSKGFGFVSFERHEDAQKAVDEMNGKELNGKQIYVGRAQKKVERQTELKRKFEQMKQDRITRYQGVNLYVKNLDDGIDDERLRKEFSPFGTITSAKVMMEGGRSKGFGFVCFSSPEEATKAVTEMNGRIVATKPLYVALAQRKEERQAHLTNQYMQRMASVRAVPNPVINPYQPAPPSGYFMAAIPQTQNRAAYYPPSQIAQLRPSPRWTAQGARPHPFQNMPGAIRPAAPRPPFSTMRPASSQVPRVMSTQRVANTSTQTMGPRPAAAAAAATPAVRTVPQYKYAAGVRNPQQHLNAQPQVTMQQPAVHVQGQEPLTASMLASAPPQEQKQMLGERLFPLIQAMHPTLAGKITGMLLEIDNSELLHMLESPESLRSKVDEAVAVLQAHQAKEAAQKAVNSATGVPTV
# Chain of Genome polyprotein (P29990 2492-3391 limits assumed): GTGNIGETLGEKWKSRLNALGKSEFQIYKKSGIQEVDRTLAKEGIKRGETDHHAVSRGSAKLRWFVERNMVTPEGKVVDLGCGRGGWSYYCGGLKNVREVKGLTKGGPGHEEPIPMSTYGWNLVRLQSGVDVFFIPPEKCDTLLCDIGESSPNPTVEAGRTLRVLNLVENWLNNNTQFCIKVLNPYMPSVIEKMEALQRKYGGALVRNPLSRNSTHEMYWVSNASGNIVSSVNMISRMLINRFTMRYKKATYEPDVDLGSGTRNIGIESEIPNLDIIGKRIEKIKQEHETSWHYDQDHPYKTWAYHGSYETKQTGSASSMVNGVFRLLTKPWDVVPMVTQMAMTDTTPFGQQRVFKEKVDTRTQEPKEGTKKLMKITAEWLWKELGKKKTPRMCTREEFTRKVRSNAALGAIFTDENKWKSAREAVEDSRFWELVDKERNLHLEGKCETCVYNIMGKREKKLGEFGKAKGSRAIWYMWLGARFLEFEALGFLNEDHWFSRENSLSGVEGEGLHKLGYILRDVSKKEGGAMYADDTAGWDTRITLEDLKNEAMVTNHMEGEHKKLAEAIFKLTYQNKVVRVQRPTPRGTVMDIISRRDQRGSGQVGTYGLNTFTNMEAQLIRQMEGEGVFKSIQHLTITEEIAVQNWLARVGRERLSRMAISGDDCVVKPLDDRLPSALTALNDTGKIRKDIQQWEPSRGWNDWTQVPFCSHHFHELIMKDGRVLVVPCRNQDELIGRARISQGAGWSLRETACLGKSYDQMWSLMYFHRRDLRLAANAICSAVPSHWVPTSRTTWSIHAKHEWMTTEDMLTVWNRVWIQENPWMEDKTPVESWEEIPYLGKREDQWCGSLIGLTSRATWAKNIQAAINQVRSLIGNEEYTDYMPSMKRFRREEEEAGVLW
# Chain of Glucose-6-phosphate 1-dehydrogenase (P11413 whole entry, the tested form may be a part): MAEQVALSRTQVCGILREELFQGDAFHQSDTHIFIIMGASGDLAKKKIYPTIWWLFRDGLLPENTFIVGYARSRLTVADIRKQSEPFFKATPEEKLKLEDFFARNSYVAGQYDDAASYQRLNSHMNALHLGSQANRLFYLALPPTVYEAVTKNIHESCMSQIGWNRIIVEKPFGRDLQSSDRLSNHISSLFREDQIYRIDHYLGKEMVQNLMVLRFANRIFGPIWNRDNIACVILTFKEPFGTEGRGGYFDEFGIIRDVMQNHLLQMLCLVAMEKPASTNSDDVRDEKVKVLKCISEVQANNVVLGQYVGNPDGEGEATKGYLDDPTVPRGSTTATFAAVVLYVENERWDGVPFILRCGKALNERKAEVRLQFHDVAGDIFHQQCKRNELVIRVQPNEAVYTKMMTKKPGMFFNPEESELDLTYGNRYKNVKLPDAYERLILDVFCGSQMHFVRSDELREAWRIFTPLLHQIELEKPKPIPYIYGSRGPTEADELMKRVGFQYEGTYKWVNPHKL
# Chain of Paired box protein Pax-8 (Q06710 whole entry, the tested form may be a part): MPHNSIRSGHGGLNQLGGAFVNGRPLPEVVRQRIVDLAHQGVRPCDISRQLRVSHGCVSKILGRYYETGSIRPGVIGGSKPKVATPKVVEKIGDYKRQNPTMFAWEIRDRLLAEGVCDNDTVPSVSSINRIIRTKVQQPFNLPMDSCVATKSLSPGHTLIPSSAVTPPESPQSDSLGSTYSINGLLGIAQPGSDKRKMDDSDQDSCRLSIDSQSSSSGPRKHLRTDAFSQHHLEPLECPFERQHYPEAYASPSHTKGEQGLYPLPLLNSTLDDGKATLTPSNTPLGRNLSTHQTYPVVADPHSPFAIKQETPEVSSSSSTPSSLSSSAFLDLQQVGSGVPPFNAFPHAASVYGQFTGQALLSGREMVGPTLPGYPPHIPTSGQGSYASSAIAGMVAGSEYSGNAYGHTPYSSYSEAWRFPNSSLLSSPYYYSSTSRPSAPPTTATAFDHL
smiles,measurement,setting,value
Cc1ccc(-n2c(SCC(=O)Nc3ncc(Cl)cc3Cl)nc3ccccc32)cc1,CC50,Vero [1],> 25 µM (active)
same,EC50,BJ [2],64.6 µM (active)
same,EC50,BJ [3],> 150 µM (not active)
same,EC50,[4],30.6 µM (inconclusive)
same,EC50,BJ [5],115 µM (active)
same,CC50,[6],2.33 µM (active)
same,IC50,cells [7],1.1 µM (active)
same,IC50,Vero [8],0.72 µM (active)
CC1CN(C(=S)c2cccc([N+](=O)[O-])c2)CC(C)O1 (centres undefined),IC50,[9],> 66 µM (inactive)
same,IC50,[10],> 66 µM (inactive)
Cc1cc(O)c(C(C)C)cc1N=Cc1ccccc1[N+](=O)[O-],IC50,Genome polyprotein,> 100 µM (active)
same,IC50,[11],> 80 µM (inactive)
NC(Cc1ccc(F)cc1)c1csc(Nc2ccc(C(F)(F)F)cn2)n1 (centres undefined),AC50,[12],9.3 µM (active)
same,AC50,[13],7.7 µM (active)
same,AC50,[14],10 µM (active)
same,AC50,[15],9.07 µM (active)
COc1cc(SC)ccc1C(=O)OCC(=O)NC(=O)NC(C)C,AC50,Escherichia coli,28.2 µM (active)
CC1C(=O)OC2CC[N+]3(CC(=O)c4ccc(Br)cc4)CC=C(COC(=O)C(C)(O)C1(C)O)C23 (centres undefined),GI50,P388,> 174 µM (inactive)
same,GI50,P388/ADR,> 375 µM (inactive)
same,GI50,SN12K1,> 375 µM (inactive)
Nc1nc(=O)[nH][nH]1,GI50,P388,> 100 µM (inactive)
same,GI50,P388/ADR,> 100 µM (inactive)
same,GI50,SN12K1,> 100 µM (inactive)
N[C@H](C(=O)O)[C@H]1ON=C(Cl)[C@@H]1O,GI50,P388,2.17 µM (inactive)
same,GI50,P388/ADR,2.23 µM (inactive)
same,GI50,SN12K1,1.07 µM (active)
COc1cccc(CN(C)C(=O)c2cccc(S(=O)(=O)N3CCN(c4ccccc4)CC3)c2)c1,AC50,[16],64.1 µM (active)
same,AC50,[17],12.2 µM (active)
same,AC50,[18],> 70 µM (inactive)
O=C1NC(=O)C2(CCc3ccc(N(CCCl)CCCl)cc32)N1 (centres undefined),GI50,P388,1.35 µM (inactive)
same,GI50,P388/ADR,2.1 µM (inactive)
same,GI50,SN12K1,15 µM (inactive)
CSCCC(c1nnnn1-c1c(C)cccc1C)N1CCC(n2c(O)nc3ccccc32)CC1 (centres undefined),AC50,[19],36.5 µM (active)
same,AC50,[20],18.3 µM (active)
same,AC50,[21],16.5 µM (active)
same,AC50,[22],22.4 µM (active)
same,AC50,[23],20.5 µM (active)
C[C@@H]1CN([C@H](C)CO)C(=O)c2cccc(NC(=O)Nc3ccc(C(F)(F)F)cc3)c2O[C@H]1CN(C)Cc1ccc2c(c1)OCO2,AC50,[24],1.82 µM (active)
C[C@H](CO)N1C[C@H](C)[C@H](CN(C)Cc2ccc(C(=O)Nc3ccccc3N)cc2)Oc2ccc(NC(=O)Nc3ccc4c(c3)OCO4)cc2C1=O,AC50,[24],3.55 µM (active)
CCCNC(=O)Nc1ccc2c(c1)OC[C@H](C)N(Cc1ccc(-c3ccccn3)cc1)C[C@@H](C)[C@@H](OC)CN(C)C2=O,AC50,[25],> 70 µM (inactive)
same,AC50,Paired box protein Pax-8,32.9 µM (active)
CCOC1=C2[C@H](c3ccccc3)N(S(=O)(=O)c3ccc(C)cc3)[C@H](C(C)C)[C@H]2C(C#N)(C#N)C(C#N)(C#N)C1,AC50,[12],6.07 µM (active)
same,AC50,[26],3.08 µM (active)
same,AC50,[13],2.05 µM (active)
same,AC50,[14],0.734 µM (active)
same,AC50,[15],1.7 µM (active)
CC1C(O)[C@@]2(OC[C@@]34C(=O)CC5(O)[C@H](CCC6Cc7nc8c(nc7C[C@]65C)CC5CC[C@@H]6C7=C[C@H]9O[C@@]%10(O[C@@](C)(CO)C[C@@H]%10O)C(C)[C@@]9(O)[C@]7(C)[C@@H](O)CC6[C@]5(C)C8)C3=CC[C@H]4C2C)OC1(C)C (some centres undefined),GI50,P388,< 0.000355 µM (active)
same,GI50,P388/ADR,0.00203 µM (active)
same,GI50,SN12K1,> 3.55 µM (inactive)
Nc1ccn(C2OC(CO)C(O)C2F)c(=O)n1 (centres undefined),AC50,[12],33.2 µM (active)
same,AC50,[26],2.98 µM (active)
same,AC50,[13],6.52 µM (active)
same,AC50,[14],16.3 µM (active)
same,AC50,[15],> 70 µM (inactive)
CC(=O)N1CCN(c2cc3c(cc2F)c(=O)c(C(=O)O)cn3C2CC2)CC1,IC50,cells [27],2.11 µM (active)
same,AC50,Escherichia coli,1.06 µM (active)
COC1=CC(=O)N(C(=O)C(OC(=O)C2CCCN2C(=O)C2CCCN2C(=O)C(C(C)C)N(C)C(=O)C(NC(=O)C(C(C)C)N(C)C)C(C)C)C(C)C)C1Cc1ccccc1 (centres undefined) (ξNMe2Val-V[NMeV]PP-X18; configuration not given here),GI50,P388,0.0004 µM (active)
same,GI50,P388/ADR,0.00748 µM (active)
same,GI50,SN12K1,0.0004 µM (active)
